# Measured values as given in patent publication US12492378B2, “Stepwise method of producing various types of cells from pluripotent stem cells” (Kyoto University, priority 2018, dated 2025).
# B1: Activin A: a stimulator of mutant ACVR1; R&D (protein, UniProt P08476 311-426, looked up)
# Inhibin beta A chain: GLECDGKVNICCKKQFFVSFKDIGWNDWIIAPSGYHANYCEGECPSHIAGTSGSSLSFHSTVINHYRMRGHSPFANLKSCCVPTKLRPMSMLYYDDGQNIIKKDIQNMIVEECGCS
# modifications: Inhibin beta A chain
# notes: a stimulator of mutant ACVR1; R&D
# Tests used:
# [1] = test system: DLL1+ presomitic mesoderm cells; assay: Induction of somite cells (SM) from presomitic mesoderm cells; type: cell-based, human; details: for PAX3-GFP+ cells: four days culture, FACS
# Procedure: IPS cells were cultured in SCDF condition of Example 1 for 4 days, and a total of 1.0×10^5 DLL1^+ presomitic mesoderm cells sorted by FACS were seeded onto one well of a matrigel-coated 12-well plate and subsequently underwent the induction of somite cells (FIG. 3A). The induction of somite cells was carried out for 4 days in CDM basal medium supplemented with SB431542 and/or 5 μM CHIR99021. The medium was changed at day 3 of the induction of somite cells. The expression of PAX3-GFP was used as a somite cell marker. The added factors and their concentrations are as follows: • S10: SB431542 10 μM • C1: CHIR99021 1 μM • C5: […]20: FGF2 20 ng/ml • […]: IWR1 10 μM
# dermomyotome cells = assay: Induction of myotome cells (MYO) from dermomyotome cells; type: cell-based, human; details: 5 μM CHIR99021, 30 days; number of MYOD- and MYOG-positive cells
# Procedure: We next tried to induce myotome cells directly from dermomyotome cells obtained in the above (3). The medium of the dermomyotome cell culture obtained in (3) was replaced with CDM basal medium supplemented with 5 μM of CHIR99021, and the cell culture was further cultured. The medium was changed every 3 days, and the culture was performed for 30 days. A small amount of cultured cells was collected every 6 days, and the expression of myogenic markers MYOD, MYOG and PAX7 was examined over time. Induction of the myogenic markers was found 18 to 30 days after the replacement of the medium. On the other hand, the expression of the dermomyotome cell marker ALX4 was decreased in a time dependent manner (FIG. 4D). The expression of MYOD and MYOG was also determined by immunocytochemistry. The induction efficiency from dermomyotome cells into myotome cells was estimated at approximately 22% based on the number of MYOD- and MYOG-positive cells.
# PAX3-GFP iPS cells = assay: Induction of presomitic mesoderm cells (PSM) from human iPS cells, FACS for DLL1 and PAX3-GFP; type: cell-based; details: single factor, 10 μM CHIR99021, CDM basal medium, 4 days
# Procedure: Fluorescence-activated cell sorting (FACS) was performed by AriaII (BD) according to the manufacturer's protocol. Intracellular flow cytometry analysis was also performed by AriaII (BD) according to the manufacturer's protocol. Briefly, cells were fixed and permeabilized prior to the antibody staining. The expression rate of each differentiation marker was calculated by comparing that of iPSCs or induced somite cells. To minimize the effect of growth factors secreted from feeder cells or contained in a culture medium, SNL feeders were removed from an iPS cell culture, and human iPS cells were seeded onto matrigel (BD, Bedford, MA, USA) coated dishes (1.3×10^6 cells/10-cm dish). The iPS cells were cultured under feeder-free condition with […]1 medium (STEMCELL Technology, Vancouver, Canada) for 3 days. The iPS cells were then cultured in CDM basal medium supplemented with one of four factors or the appropriate combination of the four factors for 4 days (FIG. 2B). The added factors are as follows. […] To detect the induction efficiency of presomitic mesoderm cells, the cell population positive for DLL1, a surface marker for a presomitic mesoderm cell and the posterior portion of somite, and negative for PAX3-GFP, showing a newly formed and segmented somite cell, were detected by FACS (FIG. 2C). […]
# heterotopic ossification = details: reported, Hino et al., 2017; cited from earlier work
# [2] = test system: somite cell-derived mesenchymal stromal cells induced from FOP-iPS cells; assay: 2D chondrogenic induction of FOP-iPS cell-derived mesenchymal stromal cells; type: cell-based, human; details: 5 days
# Procedure: (§1) The GAG content in pellets was quantified with the Blyscan™ Glycosaminoglycan Assay Kit (Biocolor Ltd., Belfast, UK). The DNA content was quantified using the PicoGreen™ dsDNA Quantitation Kit (Invitrogen).
# (§2) A total of 1.5×10^5 induced mesenchymal stromal cells or sclerotome cells were suspended in 5 μL of chondrogenic basal. medium (DMEM: F12 (Invitrogen), 1% (v/v) ITS+Premix (BD Biosciences, San Jose, CA, USA), 0.1 μM dexamethasone (WAKO), 0.17 mM L-Ascorbic acid 2-phosphate sesquimagnesium salt hydrate (Sigma), 0.35 mM Proline (Sigma), 0.15% (v/v) glucose (Sigma), 1 mM Na-pyruvate, 2 mM GlutaMax (Invitrogen) and 1% (v/v) FBS), and subsequently transferred to one well of a fibronectin-coated 24-well plate (BD Biosciences). After one hour of incubation at 37° C. in 5% CO2, cells formed micromass.
# (§3) Then, the micromass was cultured in 1 ml of chondrogenic basal medium supplemented with 10 ng/ml BMP7 (R&D) and 10 ng/ml TGFβ3 (R&D) with or without 30 ng/ml Activin A (R&D) at 37° C. in 5% CO2 for 5 days.
# The micromass induced from somite cell-derived mesenchymal stromal cells from FOP-iPS cells was also cultured in 1 mL of chondrogenic basal medium supplemented with 30 ng/ml Activin A (R&D) with/without 10 nM R667 (Toronto Research Chemicals, Toronto, ON, Canada) or 10 nM Rapamycin (MedChem Express, Monmouth Junction, NJ, USA).
# (§4) Differentiation properties of obtained cells were analyzed by RT-qPCR analysis, glycosaminoglycans (GAG) quantification and Alcian Blue staining. Briefly, induced cells were fixed for 30 minutes with 4% paraformaldehyde (WAKO), rinsed with PBS, and then stained overnight with Alcian Blue solution (1% Alcian Blue, pH1) (MUTO PURE CHEMICAL CO., LTD, Tokyo, Japan).
# [3] = test system: somite cell-derived sclerotome cells; assay: 2D chondrogenic induction of FOP-iPS cell-derived sclerotome cells; type: cell-based, human; details: 30 ng/ml Activin A, 5 days
# Procedure: as §1, §2, §3, §4
molecule,measurement,setting,value
NC(=O)c1ccc(-c2nc(-c3ccc4c(c3)OCO4)c(-c3ccccn3)[nH]2)cc1 [SB431542],PAX3-GFP+ cells,[1]; 10 μM SB431542 (S10),52.1±0.8%
"Cc1c[nH]c(-c2cnc(NCCNc3ccc(C#N)cn3)nc2-c2ccc(Cl)cc2Cl)n1 [CHIR99021, 6-[2-[4-(2,4-Dichlorophenyl)-5-(4-methyl-1H-imidazol-2-yl)pyrimidin-2-ylamino]ethylamino]pyridine-3-carbonitrile]",induction efficiency from dermomyotome cells into myotome cells,dermomyotome cells,approximately 22%
same,DLL1+/PAX3-GFP- cells (induction efficiency),PAX3-GFP iPS cells,56.3±3.1%
same,PAX3-GFP+ cells,[1]; 5 μM CHIR99021 (C5),70.7±0.1%
same,PAX3-GFP+ cells,[1]; 10 μM CHIR99021 (C10),0.3±0.0%
same,PARAXIS and MEOX1 expressions,"[1]; S10C5 compared with S10I10 or S10, 4 days, RT-qPCR",highly induced
same,PARAXIS-expressing cells,[1]; immunohistochemistry using anti-PARAXIS (TCF15) antibody,found
CC1(C)CCC(C)(C)c2cc(Cn3cccn3)c(/C=C/c3ccc(C(=O)O)cc3)cc21 [R667],inhibition of heterotopic ossification,heterotopic ossification,potent inhibitors
same,enhanced chondrogenesis by Alcian Blue staining,"[2]; 10 nM, with 30 ng/ml Activin A",inhibition of the enhanced chondrogenesis was also confirmed
same,enhancement of glycosaminoglycan (GAG) production,"[2]; 10 nM, with 30 ng/ml Activin A, GAG/DNA",significantly inhibited
same,enhancement of chondrogenic marker expressions,"[2]; 10 nM, with 30 ng/ml Activin A, RT-qPCR",significantly inhibited
B1,"chondrogenic marker expressions, GAG production and Alcian Blue staining in FOP-iPS-derived vs resFOP-iPS-derived cells",[3],no difference
same,"chondrogenesis (chondrogenic markers, GAG production) in FOP-iPS-derived vs resFOP-iPS-derived cells",[2]; 30 ng/ml Activin A,enhancement of the chondrogenesis was observed
